Measurements as given in ChEMBL document CHEMBL4811302, “Solid-phase synthesis of curcumin mimics and their anticancer activity against human pancreatic, prostate, and colorectal cancer cell lines” (Bioorg Med Chem, 2021).
The source made the active and inactive calls. No cut-off for these calls is given here.

Legend:
PC-3 [1] = assay: Antiproliferative activity against human PC-3 cells assessed as reduction in cell growth at 100 uM incubated for 72 hrs by trypan blue assay relative to control; assay type: functional
PC-3 [2] = assay: Antiproliferative activity against human PC-3 cells assessed as cell death at 100 uM incubated for 72 hrs by trypan blue assay (reference value: 3%); assay type: functional
PANC-1 [3] = assay: Antiproliferative activity against human PANC-1 cells assessed as reduction in cell growth at 100 uM incubated for 72 hrs by trypan blue assay relative to control; assay type: functional
[4] = Stability of compound in alkaline phosphatase by HPLC analysis; assay type: ADME
PANC-1 [5] = assay: Antiproliferative activity against human PANC-1 cells assessed as cell death at 100 uM incubated for 72 hrs by trypan blue assay relative to control; assay type: functional, cell-based
[6] = Stability of compound in human serum assessed as parent compound remaining measured upto 96 hrs by HPLC analysis; assay type: ADME, cell-free
SW480 [7] = assay: Antiproliferative activity against human SW480 cells assessed as reduction in cell growth at 100 uM incubated for 72 hrs by trypan blue assay relative to control; assay type: functional
[8] = Stability of compound in simulated intestinal fluid assessed as parent compound remaining at pH 6.8 at 1 mM measured after 48 hrs by HPLC analysis; assay type: ADME; settings: simulated gi fluid, pH 6.8, 48 h, 1000 µM
[9] = Stability of compound in simulated gastric fluid assessed as drug degradation at pH 1.2 at 1 mM measured after 48 hrs by HPLC analysis; assay type: ADME; settings: read-out: Drug degradation
SW480 [10] = assay: Antiproliferative activity against human SW480 cells assessed as cell death at 100 uM incubated for 72 hrs by trypan blue assay relative to control; assay type: functional, cell-based

Compound | inhibition (PC-3 [1]) | Activity (PC-3 [2]) | inhibition (PANC-1 [3]) | Stabilty [4] | Activity (PANC-1 [5]) | Stabilty [6] | inhibition (SW480 [7]) | Stabilty [8] | degraded at 48 h, 1000 µM [9] [%] | inhibition at 100 µM (PC-3 [1]) [%] | inhibition at 100 µM (PANC-1 [3]) [%] | inhibition at 100 µM (SW480 [7]) [%] | Activity (SW480 [10])
O=P([O-])(OCCc1ccc(O)cc1)OCCc1ccc(O)cc1.[Na+] | Active | Active | inactive | Stable | Active | Stable | Active | Stable | < 5 |  |  |  | 
OCCc1ccc(O)c(O)c1 [HYDROXYTYROSOL] |  |  |  |  | Active |  |  |  |  | 33 | 15 | 38 | 
COc1cc(CCO)ccc1O | inactive | Active | inactive |  | Active |  |  |  |  |  |  | 12 | 
COc1cc(CCOP(=O)([O-])OCCc2ccc(O)c(O)c2)ccc1O.[Na+] | Active | Active | inactive | Stable | Active | Stable |  | Stable | < 5 |  |  | 15 | Active
O=P([O-])(OCCc1ccc(O)c(O)c1)OCCc1ccc(O)c(O)c1.[Na+] | Active | Active | inactive | Stable | Active | Stable |  | Stable | < 5 |  |  | 25 | Active
COc1cc(CCOP(=O)([O-])OCCc2ccc(O)cc2)ccc1O.[Na+] |  | 23% | inactive | Stable | Active | Stable | Active | Stable | < 5 | 28 |  |  | 
OCCc1ccc(O)cc1 [TYROSOL] |  | 7% | inactive |  | Active |  |  |  |  | 13 |  | 12 | 
O=P([O-])(OCCc1ccc(O)cc1)OCCc1ccc(O)c(O)c1.[Na+] | Active | Active | inactive | Stable | Active | Stable | Active | Stable | < 5 |  |  |  | 
COc1cc(CCOP(=O)([O-])OCCc2ccc(O)c(OC)c2)ccc1O.[Na+] | Active | Active | inactive | Stable | Active | Stable | Active | Stable | < 5 |  |  |  | 
